According to patent US11918662B2, “Heterocyclic compounds and imaging agents for imaging huntingtin protein” (CHDI Foundation, Inc., priority 2020, dated 2024):
pIC50: −log10 of the molar value.

The compounds below were run against T1, MBP-HTT(1-89)Q46-His(6×) (“Exon1-Q46”) protein aggregates (Homo sapiens, UniProt P42858, INS38QQQQQQQQQQQQQQQQQQQQQQQQQ) (assay: Exon1-Q46 Radioligand Binding Assay). Conditions: not given.
T1 construct: MBP-HTT(1-89)Q46-His(6×); His(6×) (C); made in house
T1 sequence (P42858 with tags, fused parts or gaps with the stated changes limits assumed): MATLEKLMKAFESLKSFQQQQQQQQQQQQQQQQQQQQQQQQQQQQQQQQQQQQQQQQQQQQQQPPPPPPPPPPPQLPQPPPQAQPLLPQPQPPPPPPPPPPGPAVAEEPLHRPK
Description: Exon1-Q46 Radioligand Binding Assay
For experiments 30 μM MBP-Exon1-Q46 was incubated with 150 μg/mL thrombin in assay buffer (150 mM NaCl, 50 mM Tris pH 8.0) and 2 mM CaCl2 for 16 hours at 37° C. Aggregated Exon1-Q46 was pelleted by centrifugation for 5 minutes at 13,000 rpm in a bench top centrifuge and re-dissolved in the same volume of assay buffer. […] For the RBA, Q46 protein aggregates and test compounds were pre-incubated in assay buffer for 20 minutes at room temperature, in 100 μL/well in a 96-well plate (pp, round bottom). Then, ligand was added in 50 μL/well and incubated for 60 minutes at 37° C. Final assay concentrations were […] test compound, 1 μM Exon1-Q46 protein (equivalent monomer concentration) and 0.3 nM ligand [^3H3-methyl]-5-((5-methoxypyridin-2-yl)methoxy)-2-(pyrazin-2-yl)benzo[d]oxazole. Samples were transferred onto GF/B filter plates and washed 2× with 200 μL PBS using a Filtermate Harvester. After drying filter plates for 1 hour at 55° C., the back of the plates were sealed with foil and 30 μL/well scintillation fluid (Packard MicroScint 40) added, incubated for 15 minutes in the dark and counted in a MicroBeta reader. […] IC50 values were determined with a sigmoidal inhibition model with four variables (top, bottom, slope, IC50) in a global fit using the normalized replicate data.
For `Cn1ncc2c(=O)n(CCC(=O)Nc3ccc(F)cc3F)c3c[c]([Sn]([CH3])([CH3])[CH3])ccc3c21` [Example 26-1, N-(2,4-difluorophenyl)-3-[1-methyl-4-oxo-7-(trimethylstannyl)-1H,4H,5H-pyrazolo [4,3-c]quinolin-5-yl]propanamide], the pIC50 was greater than 7.00. `COc1ccc(NC(=O)CCCn2c(=O)c3cccn3c3ccccc32)nc1` [Example 5-5] showed a pIC50 greater than 7.00.

Same assay, conditions: displacement of 0.3 nM [3H3-methyl]-5-((5-methoxypyridin-2-yl)methoxy)-2-(pyrazin-2-yl)benzo[d]oxazole from 1 μM aggregated Exon1-Q46, 60 minutes at 37° C.; read-out: Potency Range (IC50)
`COc1ccc(NC(=O)[C@H]2CC[C@@H]2n2c(=O)c3cccn3c3ccccc32)nc1` (racemic) [Example 17-1, (1SR,2SR)—N-(5-Methoxypyridin-2-yl)-2-{4-oxo-4H,5H-pyrrolo[1,2-a]quinoxalin-5-yl}cyclobutane-1-carboxamide] showed a pIC50 greater than 7.00. In the case of `O=c1c2cccn2c2ccc(F)cc2n1CCCN1CCc2ccccc2C1` [Example 13-2], the pIC50 was greater than 7.00. With `COc1cccc(NC(=O)CCCn2c(=O)c3cccn3c3ccc(F)cc32)c1` [Example 1-14] the pIC50 was greater than 7.00. `Cc1cccc(NC(=O)CCn2c(=O)c3ccnn3c3ccc(F)cc32)n1` [Example 8-9] showed a pIC50 greater than 7.00. `O=C(CCCn1c(=O)c2cccn2c2ccccc21)NC1CCCCCC1` [Example 5-15] was tested, and the pIC50 was 6.30 to 7.00. With `O=C(CCCn1c(=O)c2cccn2c2ccc(F)cc21)NC1CCCCC1` [Example 1-35] the pIC50 was 6.30 to 7.00. `Cc1ccc(NC(=O)CCNc2cc(F)ccc2-n2cccn2)cc1` [Example 3-69] was tested, and the pIC50 was 6.30 to 7.00. Compound `Cn1ncc2c(=O)n(CCC(=O)Nc3ccncc3F)c3cc(F)ccc3c21` [Example 9-7] has a pIC50 greater than 7.00. `Cn1ncc2c(=O)n(CCC(=O)Nc3ccc(F)cc3F)c3cc(F)c(F)cc3c21` [Example 21-1] was tested, and the pIC50 was greater than 7.00. `COc1ccc(NC(=O)CCn2c(=O)c3ccc(Cl)n3c3ccc(F)cc32)nc1` [Example 7-1] gave a pIC50 greater than 7.00. Work on `COc1ccc(NC(=O)CCCn2c(=O)c3cccn3c3cnccc32)cc1` [Example 6-2] yielded a pIC50 greater than 7.00. Compound `COc1cccc(NC(=O)CCCn2c(=O)c3cccn3c3ccc(OC)cc32)c1` [Example 5-8] has a pIC50 greater than 7.00. Compound `COc1cncc(NC(=O)CCn2c(=O)c3cccn3c3ccc(F)cc32)c1` [Example 3-11] has a pIC50 greater than 7.00. Work on `O=c1c2cccn2c2ccc(F)cc2n1CCN1CCc2ccccc2C1` [Example 13-1, 7-Fluoro-5-[2-(1,2,3,4-tetrahydroisoquinolin-2-yl)ethyl]-4H,5H-pyrrolo[1,2-a]quinoxalin-4-one] yielded a pIC50 greater than 7.00. In the case of `O=C(CCCn1c(=O)c2cccn2c2ccc(F)cc21)N1CCCC(C(F)(F)F)C1` (stereo not shown) [Example 1-45], the pIC50 was greater than 7.00. `Cn1ncc2c(=O)n(CCC(=O)Nc3ccc(F)cc3)c3cc(F)ccc3c21` [Example 9-29] showed a pIC50 greater than 7.00. Compound `COC1CCC(NC(=O)CCCn2c(=O)c3cccn3c3ccc(F)cc32)CC1` (stereo not shown) [Example 1-32] has a pIC50 of 6.30 to 7.00. For `O=C(CCCn1c(=O)c2cccn2c2ccc(F)cc21)Nc1ccc(Cl)cc1` [Example 1-26], the pIC50 was greater than 7.00. Compound `O=C(CCn1c(=O)c2cn[nH]c2c2ccc(F)cc21)Nc1ccc(F)cc1F` [Example 19-1, N-(2,4-Difluorophenyl)-3-(7-fluoro-4-oxo-1H-pyrazolo[4,3-c]quinolin-5-yl)propanamide] has a pIC50 greater than 7.00. In the case of `CC(C)NC(=O)CCCn1c(=O)c2cccn2c2ccc(F)cc21` [Example 1-27], the pIC50 was 6.30 to 7.00. In the case of `O=C(CCn1c(=O)c2ccnn2c2ccc(F)cc21)Nc1ccccc1F` [Example 8-2], the pIC50 was greater than 7.00. `Cc1ccc(NC(=O)CCn2c(=O)c3cccn3c3ccc(F)cc32)cc1` [Example 3-2] gave a pIC50 greater than 7.00. For `Cn1ncc2c(=O)n(CCC(=O)Nc3ccc(F)cc3F)c3cccc(F)c3c21` [Example 21-3], the pIC50 was greater than 7.00. Work on `O=C(CCn1c(=O)c2cc(F)cn2c2ccc(F)cc21)NCc1ccccn1` [Example 3-62] yielded a pIC50 greater than 7.00. `O=C(CCn1c(=O)c2cc(F)cn2c2ccc(F)cc21)N1Cc2cccnc2C1` [Example 3-65] gave a pIC50 greater than 7.00. Work on `Cn1ncc2c(=O)n(CCC(=O)N3CCc4ncccc43)c3cc(F)ccc3c21` [Example 9-5] yielded a pIC50 greater than 7.00. For `O=C(CCn1c(=O)c2cccn2c2ccc(F)cc21)N1CCc2ccccc2C1` [Example 3-44], the pIC50 was greater than 7.00. In the case of `Cn1ncc2c(=O)n(CCC(=O)N3Cc4ccncc4C3)c3cc(F)ccc3c21` [Example 9-12], the pIC50 was greater than 7.00. For `Cn1ncc2c(=O)n(CCC(=O)N3Cc4cccnc4C3)c3cc(F)ccc3c21` [Example 9-4], the pIC50 was greater than 7.00. With `C[C@@H]1CN(C(=O)CCCn2c(=O)c3cccn3c3ccc(F)cc32)C[C@H]1C` [Example 1-48] the pIC50 was greater than 7.00. `COc1cccnc1NC(=O)CCn1c(=O)c2cccn2c2ccc(F)cc21` [Example 3-17] was tested, and the pIC50 was greater than 7.00. Work on `O=C(CCCn1c(=O)c2cccn2c2ccc(Br)cc21)N1CCCCC1` [Example 29-5] yielded a pIC50 greater than 7.00. `[2H]C(C(=O)Nc1ccc(F)cc1F)C([2H])([2H])n1c(=O)c2cnn(C)c2c2ccc(F)cc21` (stereo not shown) [Example 20-1] was tested, and the pIC50 was greater than 7.00. `O=C(CCn1c(=O)c2cccn2c2ccc(F)cc21)N1CCc2cccnc21` [Example 3-53] showed a pIC50 greater than 7.00. `O=C(CCn1c(=O)c2cccn2c2ccc(F)cc21)N1CCc2ccncc21` [Example 3-57] was tested, and the pIC50 was greater than 7.00. In the case of `Cc1ccc(NC(=O)CCn2c(=O)c3cccn3c3ccc(F)cc32)nc1` [Example 3-24], the pIC50 was greater than 7.00. In the case of `COc1ccc(NC(=O)CCn2c(=O)c3cccn3c3ccc(F)cc32)nc1` [Example 3-6], the pIC50 was greater than 7.00. In the case of `C[C@H]1CN(C(=O)CCCn2c(=O)c3cccn3c3ccc(F)cc32)C[C@H](C)O1` [Example 1-4], the pIC50 was greater than 7.00. `COc1ccc(CCCn2c(=O)c3cccn3c3ccc(F)cc32)cn1` [Example 18-1, 7-Fluoro-5-[3-(6-methoxy-3-pyridyl)propyl]pyrrolo[1,2-a]quinoxalin-4-one] was tested, and the pIC50 was greater than 7.00. Work on `O=C(CCn1c(=O)c2cc(F)cn2c2ccc(F)cc21)N1Cc2ccncc2C1` [Example 3-64] yielded a pIC50 greater than 7.00. Work on `COc1ccnc(NC(=O)CCCn2c(=O)c3cccn3c3ncccc32)c1` [Example 4-4] yielded a pIC50 greater than 7.00. Work on `COc1cccc(NC(=O)CCn2c(=O)c3cccn3c3ccc(F)cc32)c1` [Example 3-20] yielded a pIC50 greater than 7.00. With `CC1CCC(NC(=O)CCn2c(=O)c3cccn3c3ccc(F)cc32)CC1` (stereo not shown) [Example 3-32] the pIC50 was greater than 7.00. With `Cn1ncc2c(=O)n(CCC(=O)Nc3cccc(Cl)c3F)c3cc(F)ccc3c21` [Example 9-19] the pIC50 was greater than 7.00. `COc1cccc(NC(=O)CCCn2c(=O)c3cccn3c3cccnc32)c1` [Example 4-5] was tested, and the pIC50 was greater than 7.00. In the case of `Cn1ncc2c(=O)n(CCC(=O)Nc3cccc(F)c3)c3cc(F)ccc3c21` [Example 9-30], the pIC50 was greater than 7.00. For `COc1ccc(NC(=O)CCCn2c(=O)c3cccn3c3ncccc32)cc1` [Example 4-2], the pIC50 was greater than 7.00. `O=C(CCCn1c(=O)c2cccn2c2ccc(F)cc21)N1Cc2ccccc2C1` [Example 1-13] was tested, and the pIC50 was greater than 7.00. In the case of `O=C(CCn1c(=O)c2cccn2c2ccc(F)cc21)NCC1CCCCC1` [Example 3-35], the pIC50 was greater than 7.00. `Cc1ccc(NC(=O)CCn2c(=O)c3ccnn3c3ccc(F)cc32)nc1` [Example 8-10] gave a pIC50 greater than 7.00. In the case of `COc1ccc(NC(=O)CCCn2c(=O)c3cccn3c3ccncc32)nc1` [Example 2-5], the pIC50 was greater than 7.00. In the case of `O=C(CCCn1c(=O)c2cccn2c2ccc(F)cc21)N1CCOCC1` [Example 29-1], the pIC50 was greater than 7.00. Work on `CNC(=O)CCCn1c(=O)c2cccn2c2ccc(F)cc21` [Example 1-33] yielded a pIC50 of 6.30 to 7.00. `COc1ccccc1NC(=O)CCCn1c(=O)c2cccn2c2ccc(F)cc21` [Example 1-17] was tested, and the pIC50 was greater than 7.00. `Cn1nc(C(=O)NCCn2c(=O)c3cccn3c3ccc(F)cc32)ccc1=O` [Example 15-1] showed a pIC50 greater than 7.00. `CC1CCC(N(C)C(=O)CCCn2c(=O)c3cccn3c3ccc(F)cc32)CC1` (stereo not shown) [Example 1-46] showed a pIC50 greater than 7.00. Work on `CN(C)CCNC(=O)CCCn1c(=O)c2cccn2c2ccc(F)cc21` [Example 1-30] yielded a pIC50 of 5.00 to 6.30. `[2H]C([2H])([2H])n1cc2c(=O)n(CCC(=O)Nc3ccc(F)cc3F)c3cc(F)ccc3c2n1` [Example 19-4] showed a pIC50 greater than 7.00. `Cn1ncc2c(=O)n(CCC(=O)Nc3ccccc3Cl)c3cc(F)ccc3c21` [Example 9-17] was tested, and the pIC50 was greater than 7.00. `Cc1ccc(NC(=O)CCn2c(=O)c3cccn3c3ccc(F)cc32)cn1` [Example 3-8] was tested, and the pIC50 was greater than 7.00. `COc1ccnc(NC(=O)CCCn2c(=O)c3cccn3c3cccnc32)c1` [Example 4-8] showed a pIC50 greater than 7.00. Compound `COc1ccc(NC(=O)CCCn2c(=O)c3cccn3c3ccc(F)cc32)cc1` [Example 1-12] has a pIC50 greater than 7.00. `Cn1ncc2c(=O)n(CCC(=O)N3CCc4cnccc43)c3cc(F)ccc3c21` [Example 9-10] showed a pIC50 greater than 7.00. For `CN(C)C(=O)CCCn1c(=O)c2cccn2c2ccc(F)cc21` [Example 1-40], the pIC50 was greater than 7.00. `COc1ccc(NC(=O)CCCn2c(=O)c3cccn3c3cnccc32)nc1` [Example 6-4] was tested, and the pIC50 was greater than 7.00. `COc1ccnc(NC(=O)CCCn2c(=O)c3cccn3c3cnccc32)c1` [Example 6-5] showed a pIC50 greater than 7.00. For `Cc1ccc(C(=O)NCCCn2c(=O)c3cccn3c3ccc(F)cc32)cc1` [Example 12-2], the pIC50 was greater than 7.00. With `COc1ccc(NC(=O)CCn2c(=O)c3cc(F)cn3c3ccc(F)cc32)nc1` [Example 3-66] the pIC50 was greater than 7.00.
